Test results reported in US20100331310A1, “BICYCLOAMINE DERIVATIVES” (priority 2008, published 2010).
Counter-ions that a name gives are not always drawn.

Molecular target: T1, human Nav1.8 (Homo sapiens, UniProt Q9Y5Y9)
T1 construct: expressed in transfected cells
Assay: Membrane potential increase-inhibitory action on TTX-resistant Na channels in cells expressing human Nav1.8 gene (deltamethrin stimulation)
Format: cell-based
Conditions: not given
Procedure: A cell line expressing human Nav1.8 gene was used to evaluate the pharmacological effects of compounds of the invention.
1. A membrane potential-sensitive dye containing TTX (final concentration: 0.25 μM) was added to cells expressing human Nav1.8, prior to incubation at 37° C. for 30-60 minutes. 2. The test compound was added to the cells, and the mixture was stationed for 15-30 minutes at room temperature while shielded from light. 3. Deltamethrin (final concentration: 50 μM), a Nav1.8 channel stimulant, was added, and the change in fluorescence intensity due to increased membrane potential was measured.
The Nav1.8 channel inhibition of the test compound was determined by the following equation.

T1 sequence (Q9Y5Y9 whole entry): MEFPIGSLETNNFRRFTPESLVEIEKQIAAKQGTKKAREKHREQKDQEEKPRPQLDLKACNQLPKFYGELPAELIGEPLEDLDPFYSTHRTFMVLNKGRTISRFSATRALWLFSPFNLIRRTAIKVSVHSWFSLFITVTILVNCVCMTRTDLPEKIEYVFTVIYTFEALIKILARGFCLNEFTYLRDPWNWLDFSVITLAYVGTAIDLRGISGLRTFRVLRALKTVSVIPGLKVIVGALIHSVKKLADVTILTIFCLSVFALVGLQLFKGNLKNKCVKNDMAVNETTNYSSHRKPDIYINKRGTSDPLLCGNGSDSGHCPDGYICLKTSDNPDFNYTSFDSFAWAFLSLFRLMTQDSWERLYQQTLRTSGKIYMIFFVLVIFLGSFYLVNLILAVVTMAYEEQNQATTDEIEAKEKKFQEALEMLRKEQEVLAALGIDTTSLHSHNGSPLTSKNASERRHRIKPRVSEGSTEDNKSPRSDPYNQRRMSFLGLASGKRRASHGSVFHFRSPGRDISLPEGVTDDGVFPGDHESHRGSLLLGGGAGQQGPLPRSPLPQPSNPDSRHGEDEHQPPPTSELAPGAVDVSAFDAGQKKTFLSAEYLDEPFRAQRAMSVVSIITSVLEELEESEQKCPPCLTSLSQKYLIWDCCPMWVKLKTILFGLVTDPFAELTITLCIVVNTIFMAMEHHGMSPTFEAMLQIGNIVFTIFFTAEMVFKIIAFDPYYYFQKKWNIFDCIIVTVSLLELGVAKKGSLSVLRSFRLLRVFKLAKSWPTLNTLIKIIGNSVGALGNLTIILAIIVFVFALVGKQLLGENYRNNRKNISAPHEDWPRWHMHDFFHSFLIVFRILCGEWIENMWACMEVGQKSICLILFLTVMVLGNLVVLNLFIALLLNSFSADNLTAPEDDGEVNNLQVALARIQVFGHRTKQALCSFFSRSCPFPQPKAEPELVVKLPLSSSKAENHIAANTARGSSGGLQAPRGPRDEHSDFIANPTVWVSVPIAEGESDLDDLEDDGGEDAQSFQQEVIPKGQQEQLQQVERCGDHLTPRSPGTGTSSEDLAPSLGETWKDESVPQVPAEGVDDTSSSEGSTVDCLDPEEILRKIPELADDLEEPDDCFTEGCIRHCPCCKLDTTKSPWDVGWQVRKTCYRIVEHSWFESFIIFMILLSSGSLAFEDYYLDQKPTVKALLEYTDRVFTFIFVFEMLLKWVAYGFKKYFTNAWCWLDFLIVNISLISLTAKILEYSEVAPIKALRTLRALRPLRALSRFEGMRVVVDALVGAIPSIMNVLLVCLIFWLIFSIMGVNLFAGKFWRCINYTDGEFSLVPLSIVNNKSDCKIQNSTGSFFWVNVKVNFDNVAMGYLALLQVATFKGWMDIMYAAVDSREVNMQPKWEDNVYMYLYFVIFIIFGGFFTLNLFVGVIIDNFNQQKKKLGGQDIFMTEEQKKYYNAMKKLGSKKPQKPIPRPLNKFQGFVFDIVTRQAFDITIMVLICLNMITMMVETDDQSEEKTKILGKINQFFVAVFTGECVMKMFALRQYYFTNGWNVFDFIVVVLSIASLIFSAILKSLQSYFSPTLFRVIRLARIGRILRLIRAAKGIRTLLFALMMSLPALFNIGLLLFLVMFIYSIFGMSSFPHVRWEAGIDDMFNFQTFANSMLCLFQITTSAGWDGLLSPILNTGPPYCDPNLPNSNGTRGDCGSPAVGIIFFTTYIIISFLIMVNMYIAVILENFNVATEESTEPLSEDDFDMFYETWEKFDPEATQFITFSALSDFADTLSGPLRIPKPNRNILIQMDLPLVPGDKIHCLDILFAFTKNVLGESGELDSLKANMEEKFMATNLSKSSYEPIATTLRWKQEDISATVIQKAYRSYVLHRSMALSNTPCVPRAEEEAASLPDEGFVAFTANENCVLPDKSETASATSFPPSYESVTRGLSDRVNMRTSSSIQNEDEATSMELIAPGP

Row | SMILES | IC50
1 | Cc1nn2c(=O)n(C[C@H](F)CN3[C@@H]4CC[C@H]3C[C@@H](OCc3ccc(F)c(F)c3)C4)c(=O)nc2n1C [Example 102, (Endo)-6-{(R)-3-[3-(3,4-di-fluorobenzyloxy)-8-azabicyclo[3.2.1]oct-8-yl]-2-fluoropropyl}-2,3-dimethyl-3H-[1,2,4]triazole[1,5-a][1,3,5]triazine-5,7-dione] | 2.8 µM
2 | O=c1n(CC(O)CN2[C@@H]3CC[C@H]2C[C@@H](OCc2ccccc2F)C3)nnn1-c1ccccc1 (stereo partly drawn) [Example 190, (Endo)-1-{3-[3-(2-fluorobenzyloxy)-8-azabicyclo[3.2.1]oct-8-yl]-2-hydroxypropyl}-4-phenyl-1,4-dihydro-tetrazol-5-one] | 0.03 µM
3 | CCn1c(C)nc(=O)n(CCCN2[C@@H]3CC[C@H]2C[C@@H](OCc2c(F)cccc2-c2ccccc2)C3)c1=O [Example 91, (Endo)-1-ethyl-3-{3-[3-(3-fluorobiphenyl-2-ylmethoxy)-8-azabicyclo[3.2.1]oct-8-yl]propyl}-6-methyl-1H-[1,3,5]triazine-2,4-dione oxalate] | 0.17 µM
4 | Cc1nn(C[C@H](F)CN2C3CCC2CC(OCc2cccs2)C3)c(=O)n1C (stereo partly drawn) [Example 7, (Endo)-2-{(R)-2-fluoro-3-[3-(thiophen-2-ylmethoxy)-8-azabicyclo[3.2.1]oct-8-yl]propyl}-4,5-dimethyl-2,4-dihydro[1,2,4]triazol-3-one] | 4.3 µM
5 | CCn1cnn(C[C@@H](O)CN2[C@@H]3CC[C@H]2C[C@@H](OCc2c(C)cccc2F)C3)c1=O [Example 35, (Endo)-4-ethyl-2-{(S)-3-[3-(2-fluoro-6-methylbenzyloxy)-8-azabicyclo[3.2.1]oct-8-yl]-2-hydroxypropyl}-2,4-dihydro[1,2,4]triazol-3-one] | 14 µM
6 | Cc1nn(C[C@H](F)CN2[C@@H]3CC[C@H]2C[C@@H](OCc2cccc(F)c2)C3)c(=O)n1-c1ccn(C)n1 [Example 23, (Endo)-2-{(R)-2-fluoro-3-[3-(3-fluorobenzyloxy)-8-azabicyclo[3.2.1]oct-8-yl]propyl}-5-methyl-4-(1-methyl-1H-pyrazol-3-yl)-2,4-dihydro[1,2,4]triazol-3-one oxalate] | 5.3 µM
7 | Cc1nc(=O)n(C[C@@H](F)CN2[C@@H]3CC[C@H]2C[C@@H](OCc2cccc(F)c2)C3)c(=O)n1C [Example 13, (Endo)-3-{(S)-2-fluoro-3-[3-(3-fluorobenzyloxy)-8-azabicyclo[3.2.1]oct-8-yl]propyl}-1,6-dimethyl-1H-[1,3,5]triazine-2,4-dione oxalate] | 10 µM
8 | Cc1nc(=O)n(C[C@H](F)CN2[C@@H]3CC[C@H]2C[C@@H](OCc2cccc(F)c2)C3)c(=O)n1C [Example 15, (Endo)-3-{(R)-2-fluoro-3-[3-(3-fluorobenzyloxy)-8-azabicyclo[3.2.1]oct-8-yl]propyl}-1,6-dimethyl-1H-[1,3,5]triazine-2,4-dione oxalate] | 2.4 µM
9 | Cc1nn(C[C@@H](F)CN2[C@@H]3CC[C@H]2C[C@@H](OCc2ccc(F)cc2)C3)c(=O)n1-c1ccn(C)n1 [Example 24, (Endo)-2-{(S)-2-fluoro-3-[3-(4-fluorobenzyloxy)-8-azabicyclo[3.2.1]oct-8-yl]propyl}-5-methyl-4-(1-methyl-1H-pyrazol-3-yl)-2,4-dihydro[1,2,4]triazol-3-one oxalate] | 3.7 µM
10 | Cc1nn(C[C@H](O)CN2[C@@H]3CC[C@H]2C[C@@H](OCc2ccc(F)cc2)C3)c(=O)n1-c1cnn(C)c1 [Example 34, (Endo)-2-{(R)-3-[3-(4-fluorobenzyloxy)-8-azabicyclo[3.2.1]oct-8-yl]-2-hydroxypropyl}-5-methyl-4-(1-methyl-1H-pyrazol-4-yl)-2,4-dihydro[1,2,4]triazol-3-one] | 16 µM
11 | Cc1nn(CC(O)CN2[C@@H]3CC[C@H]2C[C@@H](OCc2ccccc2F)C3)c(=O)n1-c1nccs1 (stereo partly drawn) [Example 48, (Endo)-2-{3-[3-(2-fluorobenzyloxy)-8-azabicyclo[3.2.1]oct-8-yl]-2-hydroxypropyl}-5-methyl-4-thiazol-2-yl-2,4-dihydro[1,2,4]triazol-3-one oxalate] | 0.2 µM
12 | Cc1nc2c(c(=O)n1CCN1[C@@H]3CC[C@H]1C[C@@H](OCc1ccccc1F)C3)CCCC2 [Example 180, (Endo)-3-{2-[3-(2-fluorobenzyloxy)-8-azabicyclo[3.2.1]oct-8-yl]ethyl}-2-methyl-5,6,7,8-tetrahydro-3H-quinazolin-4-one oxalate] | 4.8 µM
13 | CCn1c(CCCN2[C@@H]3CC[C@H]2C[C@@H](OCc2ccccc2F)C3)nn(C)c1=O [Example 169, (Endo)-4-ethyl-5-{3-[3-(2-fluorobenzyloxy)-8-azabicyclo[3.2.1]oct-8-yl]propyl}-2-methyl-2,4-dihydro[1,2,4]triazol-3-one] | 12 µM
14 | Cn1c(-c2ccccc2)nn(CCCN2[C@@H]3CC[C@H]2C[C@@H](OCc2ccccc2F)C3)c1=O [Example 57, (Endo)-2-{3-[3-(2-fluorobenzyloxy)-8-azabicyclo[3.2.1]oct-8-yl]propyl}-4-methyl-5-phenyl-2,4-dihydro[1,2,4]triazol-3-one oxalate] | 0.08 µM
15 | Cc1cccc(COC2CC3CCC(C2)N3CC(F)Cn2c(=O)nc(C)n(C)c2=O)c1 (stereo not drawn) [Example 21, (Endo)-3-{2-fluoro-3-[3-(3-methylbenzyloxy)-8-azabicyclo[3.2.1]oct-8-yl]-propyl}-1,6-dimethyl-1H-[1,3,5]triazine-2,4-dione oxalate] | 4 µM
16 | O=c1nc2n(c(=O)n1C[C@H](F)CN1[C@@H]3CC[C@H]1C[C@@H](OCc1ccc(F)cc1)C3)CCC2 [Example 128, (Endo)-3-{(R)-2-fluoro-3-[3-(4-fluorobenzyloxy)-8-azabicyclo[3.2.1]oct-8-yl]propyl}-7,8-dihydro-6H-pyrrolo[1,2-a][1,3,5]triazine-2,4-dione oxalate] | 3.7 µM
17 | O=c1n(CC[C@H](O)CN2[C@@H]3CC[C@H]2C[C@@H](OCc2ccccc2F)C3)nc2ccccn12 [Example 155, (Endo)-2-{(S)-4-[3-(2-fluorobenzyloxy)-8-azabicyclo[3.2.1]oct-8-yl]-3-hydroxybutyl}-2H-[1,2,4]triazolo[4,3-a]pyridin-3-one] | 1.3 µM
18 | Cc1c(C)n(C)c(=O)n(CCCN2[C@@H]3CC[C@H]2C[C@@H](OCc2ccccc2F)C3)c1=O [Example 189, (Endo)-3-{3-[3-(2-fluorobenzyloxy)-8-azabicyclo[3.2.1]oct-8-yl]propyl}-1,5,6-trimethyl-1H-pyrimidine-2,4-dione oxalate] | 3.8 µM
19 | CCc1ccccc1COC1CC2CCC(C1)N2C[C@H](O)Cn1nc(C)n(CC)c1=O (stereo partly drawn) [Example 31, (Endo)-4-ethyl-2-{(S)-3-[3-(2-ethylbenzyloxy)-8-azabicyclo[3.2.1]oct-8-yl]-2-hydroxypropyl}-5-methyl-2,4-dihydro[1,2,4]triazol-3-one] | 1 µM
20 | Cc1ccccc1OC[C@@H]1C[C@H]2CC[C@@H](C1)N2CCCCn1nc2ccccn2c1=O [Example 153, (Exo)-2-{4-[3-(2-methylphenoxymethyl)-8-azabicyclo[3.2.1]oct-8-yl]butyl}-2H-[1,2,4]triazolo[4,3-a]pyridin-3-one oxalate] | 3.7 µM
21 | O=C(CN1[C@@H]2CC[C@H]1C[C@@H](OCc1ccccc1F)C2)Cn1nc2ccccn2c1=O [Example 158, (Endo)-2-{3-[3-(2-fluorobenzyloxy)-8-azabicyclo[3.2.1]oct-8-yl]-2-oxopropyl}-2H-[1,2,4]triazolo[4,3-a]pyridin-3-one] | 0.93 µM
22 | Cc1nn2c(=O)n(C[C@H](F)CN3[C@@H]4CC[C@H]3C[C@@H](OCc3cccc(F)c3)C4)c(=O)nc2n1C [Example 101, (Endo)-6-{(R)-2-fluoro-3-[3-(3-fluorobenzyloxy)-8-azabicyclo[3.2.1]oct-8-yl]propyl}-2,3-dimethyl-3H-[1,2,4]triazole[1,5-a][1,3,5]triazine-5,7-dione] | 2.7 µM
23 | Cn1c(=O)c2c(ncn2CCCN2[C@@H]3CC[C@H]2C[C@@H](OCc2ccccc2F)C3)n(C)c1=O [Example 182, (Endo)-7-{3-[3-(2-fluorobenzyloxy)-8-azabicyclo[3.2.1]oct-8-yl]propyl}-1,3-dimethyl-3,7-dihydro-purine-2,6-dione] | 6.7 µM
24 | Cn1c(-c2cocn2)nn(CC(O)CN2[C@@H]3CC[C@H]2C[C@@H](OCc2ccccc2CF)C3)c1=O (stereo partly drawn) [Example 55, (Endo)-2-{3-[3-(2-fluoromethylbenzyloxy)-8-azabicyclo[3.2.1]oct-8-yl]-2-hydroxy-propyl}-4-methyl-5-oxazol-4-yl-2,4-dihydro[1,2,4]triazol-3-one] | 12 µM
25 | Cc1cccc(F)c1CO[C@H]1C[C@H]2CC[C@@H](C1)N2CCCn1c(=O)nc2n(c1=O)CCCCC2 [Example 136, (Endo)-3-{3-[3-(2-fluoro-6-methylbenzyloxy)-8-azabicyclo[3.2.1]oct-8-yl]propyl}-7,8,9,10-tetrahydro-6H-[1,3,5]triazino[1,2-a]azepine-2,4-dione oxalate] | 4.9 µM

Same assay, conditions: 30 μM; reference for complete inhibition in the equation

Row | SMILES | Nav1.8 channel inhibition
26 | CNCCCN1c2ccccc2CCc2ccccc21 [desipramine, reference compound] | completely inhibits
